According to patent publication US9518015B2, “EP1 receptor ligands” (LABORATORIOS DEL DR. ESTEVE, S.A., priority 2011, dated 2016):

Columns and labels:
human EP1 receptor [1] = molecular target: T1, human EP1 receptor (Homo sapiens, UniProt P34995); experiment: Test 1: Human EP1 receptor radioligand binding assay ([3H]-PGE2, transfected HEK-293 cell membranes); set-up: expressed in transfected cells; host or cells: HEK-293 cell membranes; conditions: read-out: Results of Test 1 (Binding assay), % inh
T1 sequence (P34995 1-402): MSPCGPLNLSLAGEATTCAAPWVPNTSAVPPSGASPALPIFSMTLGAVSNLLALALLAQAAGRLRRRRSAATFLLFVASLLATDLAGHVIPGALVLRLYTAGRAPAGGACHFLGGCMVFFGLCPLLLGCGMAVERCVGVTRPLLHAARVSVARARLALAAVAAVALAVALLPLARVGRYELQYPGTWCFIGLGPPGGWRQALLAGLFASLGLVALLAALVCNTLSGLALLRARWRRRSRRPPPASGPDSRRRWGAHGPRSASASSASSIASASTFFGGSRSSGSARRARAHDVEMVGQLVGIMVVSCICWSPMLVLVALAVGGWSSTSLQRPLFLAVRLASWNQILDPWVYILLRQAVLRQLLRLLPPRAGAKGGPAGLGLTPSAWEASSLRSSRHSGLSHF
Procedure: Test 1: Human EP1 Receptor Radioligand Binding Assay
To investigate binding properties of EP1 receptor ligands to human EP1 receptor, transfected HEK-293 cell membranes and [3H]-PGE2 (Perkin Elmer) were used. In 96-well plates the assay was carried out with a total reaction volume of 250 μl, containing 25 μl of membrane suspension (30 μg protein/well), 25 μl of [3H]-PGE2 (10 nM) in either absence or presence of 25 μl of either buffer or PGE2 (10 μM) for total and non-specific binding, respectively. Binding buffer contained 10 mM MES, 1 mM MgCl2 and 1 mM EDTA at pH 6.0. Plates were incubated at 25° C. for 60 minutes. After the incubation period, 200 μl of incubate were transferred to MultiScreen HTS, FB plates (Millipore), filtered and plates were washed 6 times with ice-cold 10 mM MES, 1 mM MgCl2 and 1 mM EDTA at pH 6.0. Filters were dried and counted in a MicroBeta scintillation counter (Perkin-Elmer) using EcoScint liquid scintillation cocktail.
Percentage inhibition was calculated relating compounds activity to the 0% inhibition of the wells incubated with 10 nM [3H]-PGE2 alone (total binding) and 100% inhibition of the wells incubated with 10 nM [3H]-PGE2 plus 10 μM PGE2 (non-specific binding).

human EP1 receptor [2] = molecular target: T1, human EP1 receptor; experiment: Test 2: Measurement of IP1 responses by HTRF, suspended HEK-293 cells stably expressing human EP1 receptors, PGE2 30 nM; assay type: cell-based; set-up: expressed in transfected cells; conditions: for inhibition at 10 µM: HEK293, at 10 μM, read-out: Results of Test 2 (Functional assay), % inh
Procedure: Test 2: Measurement of IP1 responses by Homogeneous Time Resolved Fluorescence
IP1 measurements on HEK-293 cells that stably expressed human EP1 receptors were performed by using a system based on Homogeneous Time Resolved Fluorescense (HTRF) (Gabriel et al., 2003). This technology allows the direct measurement of IP1 in living cells. The principle of this assay is based on competition between IP1 produced by cells and IP1-d2 conjugate for the binding with monoclonal anti-IP1-cryptate conjugate. The HTRF IP1 kit from CisBio was used according to the manufacturer's directions. The experimental procedure was performed as stated below.
Suspended cells (30,000 cells per well) were added to 96-well culture plates in 40 μl of stimulation buffer (supplied by the kit). Compounds were then added in 20 μl of stimulation buffer and incubated at 37° C. for 15 minutes followed by 10 μl of PGE2 to a final concentration of […]. After 90 minutes at 37° C., the reaction was stopped lysing the cells with a mixture of 15 μl of cryptate and 15 μl of IP1-d2 prepared in the lysis buffer supplied by the manufacturer. Plates were incubated for an additional hour at room temperature and read at 665 nm/620 nm using an UltraEvolution Plate reader (Tecan).
Antagonist percentage inhibition was calculated relating compounds activity to the 0% inhibition of the wells incubated with 10 nM PGE2 alone and 100% inhibition of the wells incubated with 10 nM PGE2 plus 1 μM of the reference antagonist.

Compound	inhibition at 10 µM (human EP1 receptor [1]) [%]	inhibition at 10 µM (human EP1 receptor [2]) [%]	Results of Test 2 (Functional assay), % inh (human EP1 receptor [2]; at 10 μM)
O=C(O)c1cccc2c1ccn2Cc1cc(Cl)ccc1OCc1ccc(C(F)(F)F)cc1 [Example 11, 1-(5-chloro-2-((4-(trifluoromethyl)benzyl)oxy)benzyl)-1H-indole-4-carboxylic acid]	> 75	> 75	–
O=C(O)c1cccc2c1ccn2Cc1cc(Cl)ccc1OCc1ccc(F)cc1Cl [Example 12, 1-(5-chloro-2-((2-chloro-4-fluorobenzyl)oxy)benzyl)-1H-indole-4-carboxylic acid]	> 75	> 75	–
O=C(O)c1cccc2c1ccn2Cc1cc(Cl)ccc1OCc1c(F)c(F)cc(F)c1F [Example 13, 1-(5-chloro-2-((2,3,5,6-tetrafluorobenzyl)oxy)benzyl)-1H-indole-4-carboxylic acid]	45 to 75	> 75	–
O=C(O)c1cccc2c1ccn2Cc1cc(Cl)ccc1OCc1ccc(C(F)(F)F)cc1C(F)(F)F [Example 14]	> 75	> 75	–
O=C(O)c1cccc2c1ccn2Cc1cc(Cl)ccc1OCc1ccc(F)c(Br)c1 [Example 17, 1-(2-((3-bromo-4-fluorobenzyl)oxy)-5-chlorobenzyl)-1H-indole-4-carboxylic acid]	45 to 75	> 75	–
O=C(O)c1cccc2c1ccn2Cc1cc(F)ccc1OCc1ccc(F)cc1Cl [Example 19, 1-(2-((2-chloro-4-fluorobenzyl)oxy)-5-fluorobenzyl)-1H-indole-4-carboxylic acid]	45 to 75	> 75	–
O=C(O)c1cccc2c1ccn2Cc1cc(Cl)ccc1OCc1ccc(F)c(F)c1F [Example 21, 1-(5-chloro-2-((2,3,4-trifluorobenzyl)oxy)benzyl)-1H-indole-4-carboxylic acid]	45 to 75	> 75	–
O=C(O)c1cccc2c1ccn2Cc1cc(F)ccc1OCc1ccc(F)c(Br)c1 [Example 24, 1-(2-((3-bromo-4-fluorobenzyl)oxy)-5-fluorobenzyl)-1H-indole-4-carboxylic acid]	45 to 75	> 75	–
O=C(O)c1cccc2c1ccn2Cc1cc(Br)ccc1OCc1ccc(F)c(Br)c1 [Example 25, 1-(5-bromo-2-((3-bromo-4-fluorobenzyl)oxy)benzyl)-1H-indole-4-carboxylic acid]	45 to 75	> 75	–
O=C(O)c1cccc2c1ccn2Cc1cc(Cl)ccc1OCc1cc(F)ccc1F [Example 29, 1-(5-chloro-2-((2,5-difluorobenzyl)oxy)benzyl)-1H-indole-4-carboxylic acid]	> 75	> 75	–
O=C(O)c1cccc2c1ccn2Cc1cc(F)ccc1OCc1c(F)cccc1F [Example 33, 1-(2-((2,6-difluorobenzyl)oxy)-5-fluorobenzyl)-1H-indole-4-carboxylic acid]	45 to 75	> 75	–
O=C(O)c1cccc2c1ccn2Cc1cc(F)ccc1OCc1cc(F)c(F)c(F)c1 [Example 34, 1-(5-fluoro-2-((3,4,5-trifluorobenzyl)oxy)benzyl)-1H-indole-4-carboxylic acid]	45 to 75	> 75	–
O=C(O)c1cccc2c1ccn2Cc1cc(Cl)ccc1OCc1ccccc1F [Example 45, 1-(5-chloro-2-((2-fluorobenzyl)oxy)benzyl)-1H-indole-4-carboxylic acid]	> 75	> 75	–
O=C(O)c1cccc2c1ccn2Cc1cc(Cl)ccc1OCc1ccc(C(F)(F)F)cc1F [Example 47, 1-(5-chloro-2-((2-fluoro-4-(trifluoromethyl)benzyl)oxy)benzyl)-1H-indole-4-carboxylic acid]	> 75	> 75	–
O=C(O)c1cccc2c1ccn2Cc1cc(Cl)ccc1OCc1ccc(Cl)cc1F [Example 48, 1-(5-chloro-2-((4-chloro-2-fluorobenzyl)oxy)benzyl)-1H-indole-4-carboxylic acid]	> 75	> 75	–
O=C(O)c1cccc2c1ccn2Cc1cc(C(F)(F)F)ccc1OCc1cccc(F)c1 [Example 49, 1-(2-((3-fluorobenzyl)oxy)-5-(trifluoromethyl)benzyl)-1H-indole-4-carboxylic acid]	45 to 75	> 75	–
O=C(O)c1cccc2c1ccn2Cc1cc(C(F)(F)F)ccc1OCc1ccc(F)cc1F [Example 51, 1-(2-((2,4-difluorobenzyl)oxy)-5-(trifluoromethyl)benzyl)-1H-indole-4-carboxylic acid]	45 to 75	> 75	–
O=C(O)c1cccc2c1ccn2Cc1ccccc1OCc1ccc(F)cc1F [Example 54, 1-(2-((2,4-difluorobenzyl)oxy)benzyl)-1H-indole-4-carboxylic acid]	45 to 75	> 75	–
O=C(O)/C=C/c1cccc2c1ccn2Cc1cc(Cl)ccc1OCc1ccc(Cl)cc1F [Example 83, (E)-3-(1-(5-chloro-2-((4-chloro-2-fluorobenzyl)oxy)benzyl)-1H-indol-4-yl)acrylic acid]	–	> 75	–
O=C(O)COc1cccc2c1ccn2Cc1cc(C(F)(F)F)ccc1OCc1ccc(Cl)cc1F [Example 84, 2-((1-(2-((4-chloro-2-fluorobenzyl)oxy)-5-(trifluoromethyl)benzyl)-1H-indol-4-yl)oxy)acetic acid]	–	> 75	–
O=C(O)COc1cccc2c1ccn2Cc1cc(Cl)ccc1OCC1CC1 [Example 85, 2-((1-(5-chloro-2-(cyclopropylmethoxy)benzyl)-1H-indol-4-yl)oxy)acetic acid]	–	> 75	–
O=C(O)c1ccc2ccn(Cc3cc(Br)ccc3OCc3ccccc3)c2c1 [Example 87, 1-(2-(benzyloxy)-5-bromobenzyl)-1H-indole-6-carboxylic acid]	–	> 75	–
O=C(O)CCc1cccc2c1ccn2Cc1cc(Cl)ccc1OCc1ccc(Cl)cc1F [Example 89, 3-(1-(5-chloro-2-((4-chloro-2-fluorobenzyl)oxy)benzyl)-1H-indol-4-yl)propanoic acid]	–	–	$$ (45 < % inh < 75)
O=C(O)c1ccnc2c1ccn2Cc1cc(Cl)ccc1OCc1ccc(Cl)cc1F [Example 90, 1-(5-chloro-2-((4-chloro-2-fluorobenzyl)oxy)benzyl) -1H-pyrrolo[2,3-b]pyridine-4-carboxylic acid]	–	> 75	–
O=C(O)c1cccc2c1ncn2Cc1cc(Cl)ccc1OCc1ccc(Cl)cc1F [Example 92, 1-(5-chloro-2-((4-chloro-2-fluorobenzyl)oxy)benzyl) -1H-benzo[d]imidazole-4-carboxylic acid]	–	45 to 75	–
O=C(O)c1cccc2c1CCN2Cc1cc(Cl)ccc1OCc1ccc(Cl)cc1F [Example 93, 1-(5-chloro-2-((4-chloro-2-fluorobenzyl)oxy)benzyl)indoline-4-carboxylic acid]	–	> 75	–
O=C(O)c1cccc2c1CCCN2Cc1cc(Cl)ccc1OCc1ccc(Cl)cc1F [Example 94, 1-(5-chloro-2-((4-chloro-2-fluorobenzyl)oxy)benzyl) -1,2,3,4-tetrahydroquinoline-5-carboxylic acid]	–	> 75	–
O=C(O)c1cccc2c1CCCN2Cc1cc(Cl)ccc1OCc1ccc(F)cc1F [Example 95]	–	> 75	–
O=C(O)c1ccc(F)c2c1ccn2Cc1cc(Cl)ccc1OCc1ccc(F)cc1F [Example 100, sodium 1-(5-chloro-2-((2,4-difluorobenzyl)oxy)benzyl)-7-fluoro-1H-indole-4-carboxylate]	–	> 75	–
